Experimental data reported in ChEMBL document CHEMBL6114946, “Development and characterization of pyridyl carboxamides as potent and highly selective Nav1.8 inhibitors” (Bioorg Med Chem Lett, 2025).
In brackets after ≈: the same amount, converted by molar mass. Activity calls are given as the source filed them. The rule behind the calls is not given here.

Biological target: T1, Sodium channel protein type 10 subunit alpha (Homo sapiens, UniProt Q9Y5Y9)
Experiment: Inhibition of Nav1.8 (unknown origin) over expressed in HEK cells assessed as reduction in deltamethrin-stimulated channel activation by FLIPR assay
Format: cell-based
Conditions: not given
Target sequence in this assay (Q9Y5Y9 whole entry): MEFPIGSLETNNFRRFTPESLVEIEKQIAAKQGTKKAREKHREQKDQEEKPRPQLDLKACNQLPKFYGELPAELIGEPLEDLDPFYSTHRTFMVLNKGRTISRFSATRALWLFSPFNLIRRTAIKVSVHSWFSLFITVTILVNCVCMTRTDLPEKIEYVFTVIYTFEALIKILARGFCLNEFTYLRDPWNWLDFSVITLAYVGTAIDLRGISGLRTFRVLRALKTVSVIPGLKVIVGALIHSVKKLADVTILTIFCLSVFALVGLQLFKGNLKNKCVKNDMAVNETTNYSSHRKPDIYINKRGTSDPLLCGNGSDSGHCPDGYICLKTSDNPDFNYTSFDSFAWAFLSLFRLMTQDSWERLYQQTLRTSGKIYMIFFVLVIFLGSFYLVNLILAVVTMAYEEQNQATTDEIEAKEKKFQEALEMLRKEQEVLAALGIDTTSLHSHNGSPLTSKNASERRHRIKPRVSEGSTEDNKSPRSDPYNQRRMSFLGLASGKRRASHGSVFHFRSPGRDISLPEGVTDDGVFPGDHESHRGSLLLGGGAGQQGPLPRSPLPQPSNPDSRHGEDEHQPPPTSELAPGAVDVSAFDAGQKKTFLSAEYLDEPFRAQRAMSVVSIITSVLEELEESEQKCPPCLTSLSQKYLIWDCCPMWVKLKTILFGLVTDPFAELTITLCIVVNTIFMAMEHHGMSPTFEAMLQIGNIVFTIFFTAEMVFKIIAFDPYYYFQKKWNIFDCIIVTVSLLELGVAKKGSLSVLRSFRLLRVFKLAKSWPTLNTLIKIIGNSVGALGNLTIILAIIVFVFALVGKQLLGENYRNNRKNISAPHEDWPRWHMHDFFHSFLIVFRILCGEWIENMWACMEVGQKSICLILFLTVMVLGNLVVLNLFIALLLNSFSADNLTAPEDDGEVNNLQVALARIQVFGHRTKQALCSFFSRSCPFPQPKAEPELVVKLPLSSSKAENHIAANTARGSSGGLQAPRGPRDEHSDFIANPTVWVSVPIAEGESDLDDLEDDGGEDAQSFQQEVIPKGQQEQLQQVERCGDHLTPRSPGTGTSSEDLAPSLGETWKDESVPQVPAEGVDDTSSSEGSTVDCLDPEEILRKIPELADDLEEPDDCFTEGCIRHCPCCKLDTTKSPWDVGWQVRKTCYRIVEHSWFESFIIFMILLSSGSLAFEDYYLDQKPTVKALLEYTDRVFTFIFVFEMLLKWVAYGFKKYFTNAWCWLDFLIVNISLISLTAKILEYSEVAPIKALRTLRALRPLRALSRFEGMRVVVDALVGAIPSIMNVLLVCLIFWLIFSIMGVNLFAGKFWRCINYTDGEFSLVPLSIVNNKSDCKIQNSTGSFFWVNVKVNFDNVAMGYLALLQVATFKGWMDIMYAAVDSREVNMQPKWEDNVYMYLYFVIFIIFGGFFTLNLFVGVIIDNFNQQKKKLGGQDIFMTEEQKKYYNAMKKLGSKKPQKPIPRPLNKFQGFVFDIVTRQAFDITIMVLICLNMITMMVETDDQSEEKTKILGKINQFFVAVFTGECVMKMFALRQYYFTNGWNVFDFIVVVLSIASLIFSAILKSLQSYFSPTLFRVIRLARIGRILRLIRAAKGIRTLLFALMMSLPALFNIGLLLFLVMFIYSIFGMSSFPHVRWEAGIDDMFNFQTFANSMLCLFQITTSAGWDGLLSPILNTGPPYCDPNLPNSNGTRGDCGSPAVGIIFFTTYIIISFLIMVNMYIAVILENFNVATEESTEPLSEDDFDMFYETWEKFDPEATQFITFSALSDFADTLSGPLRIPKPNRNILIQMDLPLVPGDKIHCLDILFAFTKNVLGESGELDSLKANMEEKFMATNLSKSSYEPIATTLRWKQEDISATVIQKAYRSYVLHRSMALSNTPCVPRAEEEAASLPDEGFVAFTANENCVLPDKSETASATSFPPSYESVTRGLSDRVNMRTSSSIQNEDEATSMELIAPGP

| SMILES | IC50 |
| --- | --- |
| COc1cc(F)ccc1Oc1ncc(C(F)(F)F)cc1C(=O)Nc1ccccn1 | > 5000 nM |
| COc1cc(F)ccc1Oc1ncc(C(F)(F)F)cc1C(=O)Nc1cccnc1 | 2200 nM |
| CS(=O)(=O)c1cccc(NC(=O)c2cc(C(F)(F)F)cnc2Oc2ccc(F)cc2Cl)c1 | 251 nM |
| CS(=O)(=O)c1cccc(NC(=O)c2cc(C(F)(F)F)cnc2Oc2ccccc2)c1 | 1600 nM |
| CS(=O)(=O)c1cccc(NC(=O)c2cc(C(F)(F)F)cnc2Oc2cc(F)cc(F)c2)c1 | 1300 nM |
| CS(=O)(=O)c1cccc(NC(=O)c2cc(C(F)(F)F)cnc2Oc2c(F)cccc2F)c1 | > 5000 nM |
| COc1cc(F)ccc1Oc1ncc(C(F)(F)F)cc1C(=O)Nc1cccc(P(C)(C)=O)c1 | 3000 nM |
| CS(=O)(=O)c1cccc(NC(=O)c2cc(C(F)(F)F)cnc2Oc2ccc(F)cc2)c1 | 2900 nM |
| COc1cc(F)ccc1Oc1ncc(C(F)(F)F)cc1C(=O)Nc1ccncc1 | 560 nM |
| CS(=O)(=O)c1cccc(NC(=O)c2cc(C(F)(F)F)cnc2Oc2cccnc2)c1 | > 5000 nM |
| COc1cc(F)ccc1Oc1ncc(C(F)(F)F)cc1C(=O)Nc1ccnnc1 | 540 nM |

Now those with a lower IC50, led by results:

| IC50 | SMILES |
| --- | --- |
| 33 nM | COc1cc(F)ccc1Oc1nc2ccccc2nc1C(=O)Nc1cccc(S(C)(=O)=O)c1 |
| 87 nM | CS(=O)(=O)c1cccc(NC(=O)c2cc(C(F)(F)F)cnc2Oc2ccc(F)cc2F)c1 |
| 69 nM | CN=S(C)(=O)c1cccc(NC(=O)c2cc(C(F)(F)F)cnc2Oc2ccc(F)cc2OC)c1 (stereo unspecified) |
| 22 nM | COc1cc(F)ccc1Oc1ncc(C(F)(F)F)cc1C(=O)Nc1cccc(S(C)(=N)=O)c1 (stereo unspecified) |
| 24 nM | CS(=O)(=O)c1cccc(NC(=O)c2cc(C(F)(F)F)cnc2Oc2ccc(OC(F)(F)F)cc2Cl)c1 |
| 60 nM | COc1cc(F)ccc1Oc1ncc(C(F)(F)F)cc1C(=O)Nc1cccc(S(C)(=O)=O)c1 |
| 102 nM | COc1cc(F)ccc1Oc1nc(C(F)(F)F)ccc1C(=O)Nc1cccc(S(C)(=O)=O)c1 |

Biological target: T1, Sodium channel protein type 10 subunit alpha
Experiment: Inhibition of human Nav1.8 with resting membrane potential at half inactivated state by PatchXpress high-throughput electrophysiology method
Conditions: not given
Target sequence in this assay (Q9Y5Y9 whole entry): as above

| IC50 | SMILES |
| --- | --- |
| 36 nM | COc1cc(F)ccc1Oc1nc2ccccc2nc1C(=O)Nc1cccc(S(C)(=O)=O)c1 |
| 68 nM | CN=S(C)(=O)c1cccc(NC(=O)c2cc(C(F)(F)F)cnc2Oc2ccc(F)cc2OC)c1 (stereo unspecified) |
| 23 nM | COc1cc(F)ccc1Oc1ncc(C(F)(F)F)cc1C(=O)Nc1cccc(S(C)(=N)=O)c1 (stereo unspecified) |
| 15 nM | CS(=O)(=O)c1cccc(NC(=O)c2cc(C(F)(F)F)cnc2Oc2ccc(OC(F)(F)F)cc2Cl)c1 |
| 14 nM | COc1cc(F)ccc1Oc1ncc(C(F)(F)F)cc1C(=O)Nc1cccc(S(C)(=O)=O)c1 |
| 250 nM | COc1cc(F)ccc1Oc1ncc(C(F)(F)F)cc1C(=O)Nc1ccnnc1 |

Biological target: T1, Sodium channel protein type 10 subunit alpha
Experiment: Inhibition of Nav1.8 (unknown origin) at 10 uM by Ionflux high-throughput automated patch method
Conditions: not given
Target sequence in this assay (Q9Y5Y9 whole entry, looked up): as the sequence (Q9Y5Y9 whole entry) above

| SMILES | inhibition |
| --- | --- |
| COc1cc(F)ccc1Oc1ncc(C(F)(F)F)cc1C(=O)Nc1ccccn1 | Active |
| COc1cc(F)ccc1Oc1ncc(C(F)(F)F)cc1C(=O)Nc1cccnc1 | Active |
| CS(=O)(=O)c1cccc(NC(=O)c2cc(C(F)(F)F)cnc2Oc2ccc(F)cc2Cl)c1 | Active |
| CS(=O)(=O)c1cccc(NC(=O)c2cc(C(F)(F)F)cnc2Oc2ccccc2)c1 | Active |
| CS(=O)(=O)c1cccc(NC(=O)c2cc(C(F)(F)F)cnc2Oc2cc(F)cc(F)c2)c1 | Active |
| CS(=O)(=O)c1cccc(NC(=O)c2cc(C(F)(F)F)cnc2Oc2c(F)cccc2F)c1 | Active |
| COc1cc(F)ccc1Oc1ncc(C(F)(F)F)cc1C(=O)Nc1cccc(P(C)(C)=O)c1 | Active |
| CS(=O)(=O)c1cccc(NC(=O)c2cc(C(F)(F)F)cnc2Oc2ccc(F)cc2)c1 | Active |
| COc1cc(F)ccc1Oc1ncc(C(F)(F)F)cc1C(=O)Nc1ccncc1 | Active |
| CS(=O)(=O)c1cccc(NC(=O)c2cc(C(F)(F)F)cnc2Oc2cccnc2)c1 | Active |
| COc1cc(F)ccc1Oc1ncc(C(F)(F)F)cc1C(=O)Nc1ccnnc1 | Active |

Next, values leading:

| inhibition | SMILES |
| --- | --- |
| Active | COc1cc(F)ccc1Oc1nc2ccccc2nc1C(=O)Nc1cccc(S(C)(=O)=O)c1 |
| Active | CS(=O)(=O)c1cccc(NC(=O)c2cc(C(F)(F)F)cnc2Oc2ccc(F)cc2F)c1 |
| Active | CN=S(C)(=O)c1cccc(NC(=O)c2cc(C(F)(F)F)cnc2Oc2ccc(F)cc2OC)c1 (stereo unspecified) |
| Active | COc1cc(F)ccc1Oc1ncc(C(F)(F)F)cc1C(=O)Nc1cccc(S(C)(=N)=O)c1 (stereo unspecified) |
| Active | CS(=O)(=O)c1cccc(NC(=O)c2cc(C(F)(F)F)cnc2Oc2ccc(OC(F)(F)F)cc2Cl)c1 |
| Active | COc1cc(F)ccc1Oc1ncc(C(F)(F)F)cc1C(=O)Nc1cccc(S(C)(=O)=O)c1 |
| Active | COc1cc(F)ccc1Oc1nc(C(F)(F)F)ccc1C(=O)Nc1cccc(S(C)(=O)=O)c1 |

Test system: not listed separately
Experiment: Kinetic solubility of the compound in pH 7.4 phosphate buffered saline measured after 2 hrs by LC/MS analysis
Format: physicochemical
Conditions: read-out: Kinetic_solubility

| SMILES | solubility kinetic at 2 h |
| --- | --- |
| COc1cc(F)ccc1Oc1ncc(C(F)(F)F)cc1C(=O)Nc1ccncc1 | 19 µg/mL (≈ 46.6 µM) |
| COc1cc(F)ccc1Oc1ncc(C(F)(F)F)cc1C(=O)Nc1ccnnc1 | 70 µg/mL (≈ 171 µM) |

More lines, now with the values ahead:

| solubility kinetic at 2 h | SMILES |
| --- | --- |
| 0.3 µg/mL (≈ 0.635 µM) | CS(=O)(=O)c1cccc(NC(=O)c2cc(C(F)(F)F)cnc2Oc2ccc(F)cc2F)c1 |
| 27 µg/mL (≈ 54.3 µM) | CN=S(C)(=O)c1cccc(NC(=O)c2cc(C(F)(F)F)cnc2Oc2ccc(F)cc2OC)c1 (stereo unspecified) |
| 48 µg/mL (≈ 99.3 µM) | COc1cc(F)ccc1Oc1ncc(C(F)(F)F)cc1C(=O)Nc1cccc(S(C)(=N)=O)c1 (stereo unspecified) |
| 1.5 µg/mL (≈ 2.7 µM) | CS(=O)(=O)c1cccc(NC(=O)c2cc(C(F)(F)F)cnc2Oc2ccc(OC(F)(F)F)cc2Cl)c1 |

Test system: not listed separately
Experiment: Clearance in rat at 1 mg/kg
Format: ADME, organism-based
Conditions: in vivo

| clearance | SMILES |
| --- | --- |
| 16 mL/min/kg | COc1cc(F)ccc1Oc1ncc(C(F)(F)F)cc1C(=O)Nc1cccc(S(C)(=O)=O)c1 |

Test system: not listed separately
Experiment: Half life in rat
Format: ADME
Conditions: in vivo

| half-life | SMILES |
| --- | --- |
| 5.6 h | COc1cc(F)ccc1Oc1ncc(C(F)(F)F)cc1C(=O)Nc1cccc(S(C)(=O)=O)c1 |

Test system: not listed separately
Experiment: Oral bioavailability in rat at 10 mg/kg
Format: ADME, organism-based
Conditions: in vivo

| bioavailability | SMILES |
| --- | --- |
| 14% | COc1cc(F)ccc1Oc1ncc(C(F)(F)F)cc1C(=O)Nc1cccc(S(C)(=O)=O)c1 |
